Measured values published in patent US9458141B2, “Low molecular weight thyroid stimulating hormone receptor (TSHR) agonists” (The United States of America, as represented by the …, priority 2008, dated 2016).

Biological target: T1, human TSHR (Homo sapiens, UniProt P16473)
T1 construct: expressed in transfected cells
Assay: Homogeneous Time Resolved Fluorescence (HTRF) cAMP assay, TSHR cell line
Format: cell-based
Settings: for Maximum Activity compared to TSH: 100% activity = response of 30 mU/ml TSH, 0% = DMSO control, in %; for AC50: HTRF cAMP, TSHR cell line, 30 minute incubation, read-out: AC50; for Emax: read-out: Maximum Activity compared to TSH, 100% activity = response of 30 mU/ml TSH, 0% = DMSO control
Excerpt: Generation of Stable Cell-Lines Expressing TSHR, LHCGR or FSHR.
cDNA for human TSHR was amplified by PCR from hTSHR-pSVL (1) and inserted into the pcDNA3.1(−)/hygromycin vector using restriction sites XhoI and BamHI. cDNA for human LHCGR was amplified by PCR from hLHR-pGS5 (2) and was inserted into the pcDNA3.1(+)/hygromycin vector using restriction sites BamHI and XhoI. The FSHR cDNA in pcDNA3.1 was obtained from the Missouri S&T cDNA Resource Center (www.cDNA.org) and was subcloned into the pcDNA3.1(−)/hygromycin vector. Constructs were confirmed by sequencing (MWG Biotech). HEK-EM 293 cells were transfected with the cDNA of TSHR, LHCGR or FSHR using FuGENE 6 Transfection reagent (Roche Diagnostics) according to the manufacturer's protocol. Two days after transfection cells were passaged and grown in Dulbecco's modified Eagle's Medium (DMEM) supplemented with 10% fetal bovine serum, 100 units/ml penicillin and 10 μg/ml streptomycin (Life Technologies Inc.) and with hygromycin (250 μg/ml) as a selection marker. After 7 to 10 days hygromycin-resistant clones were selected, and after a few days of further growth submitted for a cAMP assay to identify clones that stably express the appropriate receptor. Cell Culture. Cells stably expressing TSHR, LHCGR or FSHR and parental HEK 293 cells were maintained in DMEM medium containing 10% FBS, 100 units/ml Penicillin, 100 μg/ml Streptomycin, at 37° C. in 5% CO2. For the cells lines stably expressing TSHR, LHCGR or FSHR, additional 250 μg/ml Hygromycin was added during the cell culture. The cells were seeded at a density of 3 to 4 million cells in a T175 flask containing 35 ml of media and were allowed to grow for 3 days to reach 80-90% confluence. A flask of HEK 293 cells at this density generally yielded 30 million cells total. Homogeneous Time Resolved Fluorescence (HTRF) cAMP Assay. Compounds were assayed using a HTRF cAMP detection kit (Cisbio, Bedford, Mass.) on both TSHR cell line and parental cell line. Briefly, 750 cells were plated in 2.5 μl/well of complete media (DMEM containing 10% FCS) in 1536 well solid bottom white plates and 20 nl/well compound in DMSO solution or controls was added. Following 30 minute incubation at room temperature, 2.5 μl/well of labeled d2 cAMP and 2.5 μl/well of anti-cAMP antibody (both diluted 1:20 in lysis buffer) were added to each well using a flying reagent dispenser (Aurora Discovery, San Diego). Plates were measured using the Envision plate reader (PerkinElmer, Boston, Mass.) with excitation at 330 nm and emissions of 615 nm and 660 nm. Compound Preparation. […] Data Analysis. […] The EC50 values of compounds were calculated from the concentration-response curves by nonlinear regression analysis using Prism software (GraphPad Software, San Diego, Calif.). Confirmatory cAMP Assay and Test for Selectivity Towards TSHR 50,000 cells/well were plated in complete media (DMEM containing 10% FCS) in 96 well plates. […] Following aspiration of the medium after incubation with compounds, cells were lysed using lysis buffer of the cAMP-Screen Direct™ System (Applied Biosystems, Cat # CSD200). The cAMP content of the cell lysate was determined using the manufacturer's protocol. […] Below is a List of Compounds that were Assayed via the Homogeneous Time Resolved Fluorescence (HTRF) cAMP Assay.

T1 sequence (P16473 21-764): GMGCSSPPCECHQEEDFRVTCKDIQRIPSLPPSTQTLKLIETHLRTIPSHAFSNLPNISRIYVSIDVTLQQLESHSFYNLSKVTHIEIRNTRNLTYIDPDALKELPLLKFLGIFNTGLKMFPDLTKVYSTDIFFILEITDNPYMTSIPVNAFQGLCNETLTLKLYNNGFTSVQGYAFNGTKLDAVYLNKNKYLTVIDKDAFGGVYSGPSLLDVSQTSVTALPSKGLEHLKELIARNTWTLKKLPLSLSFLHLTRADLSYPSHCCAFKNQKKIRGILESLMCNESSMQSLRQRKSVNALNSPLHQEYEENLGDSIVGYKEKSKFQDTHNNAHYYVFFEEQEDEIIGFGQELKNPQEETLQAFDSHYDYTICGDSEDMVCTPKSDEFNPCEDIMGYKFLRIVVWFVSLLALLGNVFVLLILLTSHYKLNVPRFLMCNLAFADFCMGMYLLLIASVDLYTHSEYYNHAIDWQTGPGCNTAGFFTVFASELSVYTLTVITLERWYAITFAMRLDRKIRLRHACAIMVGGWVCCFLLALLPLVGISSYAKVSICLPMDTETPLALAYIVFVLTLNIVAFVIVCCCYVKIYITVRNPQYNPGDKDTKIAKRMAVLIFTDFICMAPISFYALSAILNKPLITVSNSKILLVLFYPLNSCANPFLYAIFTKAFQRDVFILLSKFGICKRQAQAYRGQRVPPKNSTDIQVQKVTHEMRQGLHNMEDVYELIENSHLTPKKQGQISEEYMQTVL

Maximum Activity compared to TSH	AC50 [µM]	Emax [%]	Compound
122.30	15.8	–	COc1ccc(C2Nc3ccccc3C(=O)N2Cc2ccco2)cc1COc1ccc(NC(C)=O)cc1 (stereo not shown) [Structure 34]
115.01	12.6	–	COc1ccc(C2Oc3ccccc3C(=O)N2Cc2ccccc2)cc1COc1ccc(NC(C)=O)cc1 (stereo not shown) [Structure 35]
–	5.62	115	COc1ccc(C2Nc3ccc(NC(=O)CO)cc3C(=O)N2Cc2cccc(Cl)c2)cc1COc1ccc(NC(C)=O)cc1 (stereo not shown) [Structure 36]
573.36	7.08	–	COc1ccc(C2Nc3ccccc3C(=O)N2Cc2ccccc2)cc1CSc1ccc(NC(C)=O)cc1 (stereo not shown) [Structure 38]
123.60	20	–	CCCCN1C(=O)c2ccccc2NC1c1ccc(OC)c(COc2ccc(NC(C)=O)cc2)c1 (stereo not shown) [Structure 39]
128.80	11.2	–	COc1ccc(CN(Cc2ccccc2)C(=O)c2ccccc2)cc1COc1ccc(NC(C)=O)cc1 [Structure 40]
122.50	15.8	–	COc1ccc(CN(Cc2ccccc2)C(=O)c2ccco2)cc1COc1ccc(NC(C)=O)cc1 [Structure 41]
131.51	14.1	–	COc1ccc(C2Nc3ccccc3C(=O)N2Cc2ccco2)cc1COc1ccc(NC(C)=O)cc1 (stereo not shown) [Structure 42]
128.45	10	–	COc1ccc(C2Nc3ccc(NC(=O)CO)cc3C(=O)N2Cc2cccc(Cl)c2)cc1COc1ccc(NC(C)=O)cc1 (stereo not shown) [Structure 43]
105.58	7.08	–	COc1ccc(C2Nc3ccccc3C(=O)N2Cc2cccc(Cl)c2)cc1COc1ccc(NC(C)=O)cc1 (stereo not shown) [Structure 44]
141.85	14.1	–	COc1ccc(C(=O)N(Cc2ccccc2)Cc2ccc(OC)c(COc3ccc(NC(C)=O)cc3)c2)cc1 [Structure 45]
182.52	7.94	–	COc1cccc(CN2C(=O)c3ccccc3NC2c2ccc(OC)c(COc3ccc(NC(C)=O)cc3)c2)c1 (stereo not shown) [Structure 46]
165.16	25.1	–	COc1ccc(-c2nc3ccccc3c(=O)n2Cc2ccco2)cc1COc1ccc(NC(C)=O)cc1 [Structure 47]
106.48	8.91	–	COc1ccc(C2Nc3ccc(NC(=O)COC(C)=O)cc3C(=O)N2Cc2ccccc2)cc1COc1ccc(NC(C)=O)cc1 (stereo not shown) [Structure 48]
70.37	2.82	–	COc1ccc(C2Nc3ccccc3C(=O)N2Cc2cccc(Cl)c2)cc1COc1ccc(NC(C)=O)cc1 (stereo not shown) [Structure 50]
104.78	8.91	–	COc1ccc(-c2nc3ccccc3c(=O)n2Cc2ccccc2)cc1COc1ccc(NC(C)=O)cc1 [Structure 52]
141.76	12.6	–	COc1ccc(C2Nc3ccccc3C(=O)N2Cc2ccco2)cc1COc1ccc(NC(C)=O)cc1 (stereo not shown) [Structure 53]
115.69	10	–	COc1ccc(C2Cc3ccccc3C(=O)N2Cc2ccccc2)cc1COc1ccc(NC(C)=O)cc1 (stereo not shown) [Structure 54]
100.67	14.1	–	COc1ccc(CN(Cc2ccccc2)C(=O)c2ccccc2)cc1COc1ccc(NC(C)=O)cc1 [Structure 57]
93.09	8.91	–	COc1ccc(CN(Cc2ccccc2)C(=O)c2ccccc2)cc1COc1ccc(NC(C)=O)cc1 [Structure 58]
226.43	17.8	–	COc1ccc(C2Nc3ccccc3C(=O)N2Cc2ccco2)cc1COc1ccc(NC(C)=O)cc1 (stereo not shown) [Structure 59]

Maximum Activity compared to TSH	AC50 [µM]	Emax [%]	Compound
189.97	6.31	–	COc1ccc(C2Nc3ccccc3C(=O)N2Cc2cccc(C(F)(F)F)c2)cc1COc1ccc(NC(C)=O)cc1 (stereo not shown) [Structure 60]
302.11	7.94	–	COc1ccc(C2Nc3cccc(O)c3C(=O)N2Cc2ccccc2)cc1COc1ccc(NC(C)=O)cc1 (stereo not shown) [Structure 61]
70.53	7.94	–	COc1ccc(-c2nc3ccccc3c(=O)n2Cc2ccccc2)cc1COc1ccc(NC(C)=O)cc1 [Structure 64]
–	14.1	51.6	COc1ccc(CN(Cc2ccccc2)C(=O)c2ccccc2O)cc1COc1ccc(NC(C)=O)cc1 [Structure 65]
64.52	8.91	–	COc1ccc(C2Nc3ccc(NC(=O)COC(C)=O)cc3C(=O)N2Cc2ccccc2)cc1COc1ccc(NC(C)=O)cc1 (stereo not shown) [Structure 66]
82.36	7.94	–	COc1ccc(C2Nc3ccccc3C(=O)N2CCc2ccccc2)cc1COc1ccc(NC(C)=O)cc1 (stereo not shown) [Structure 67]
–	22.4	74.8	COc1ccc(CN(Cc2ccccc2)C(=O)C2CC2)cc1COc1ccc(NC(C)=O)cc1 [Structure 68]
44.83	25.1	–	COc1ccc(CN(Cc2ccccc2)C(=O)c2ccncc2)cc1COc1ccc(NC(C)=O)cc1 [Structure 69]
53.96	10	–	COc1ccc(C2Nc3ccccc3C(=O)N2CCc2ccccc2)cc1COc1ccc(NC(C)=O)cc1 (stereo not shown) [Structure 70]
44.19	7.94	–	COc1ccc(CN(Cc2ccccc2)C(=O)c2cccc(C#N)c2)cc1COc1ccc(NC(C)=O)cc1 [Structure 71]
–	3.98	55.2	COc1ccc(C2Nc3ccccc3C(=O)N2Cc2ccc(Cl)cc2)cc1COc1ccc(NC(C)=O)cc1 (stereo not shown) [Structure 72]
75.04	28.2	–	COc1ccc(CN(Cc2ccccc2)C(=O)c2ccc(O)cc2)cc1COc1ccc(NC(C)=O)cc1 [Structure 73]
–	2.82	36	COc1ccc(C2Nc3ccccc3C(=O)N2Cc2ccc(-c3ccccc3)cc2)cc1COc1ccc(NC(C)=O)cc1 (stereo not shown) [Structure 74]
70.09	20	–	COc1ccc(CN(Cc2ccccc2)C(=O)c2cccc(C#N)c2)cc1COc1ccc(NC(C)=O)cc1 [Structure 75]
64.77	6.31	–	COc1ccc(C2Cc3ccccc3C(=O)N2Cc2ccccc2)cc1COc1ccc(NC(C)=O)cc1 (stereo not shown) [Structure 76]
68.63	3.16	–	COc1ccc(C2Nc3ccccc3C(=O)N2Cc2ccc(Cl)cc2)cc1COc1ccc(NC(C)=O)cc1 (stereo not shown) [Structure 77]
66.16	8.91	–	COc1ccc(C2Oc3ccccc3C(=O)N2Cc2ccccc2)cc1COc1ccc(NC(C)=O)cc1 (stereo not shown) [Structure 78]
61.52	1.78	–	COc1ccc(C2Nc3ccccc3C(=O)N2Cc2cccc(-c3ccccc3)c2)cc1COc1ccc(NC(C)=O)cc1 (stereo not shown) [Structure 79]
–	22.4	40	COc1ccc(-c2nc3ccc(NC(=O)CO)cc3c(=O)n2Cc2cccc(Cl)c2)cc1COc1ccc(NC(C)=O)cc1 [Structure 80]
76.98	15.8	–	COc1ccc(CN(Cc2ccccc2)C(=O)C2CC2)cc1COc1ccc(NC(C)=O)cc1 [Structure 81]
